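Values below derive from 48-hour exposures of cells grown in 96-well plates, with endpoints linearly interpolated between the two concentrations bracketing the appropriate inhibition level. Here, GI50 denotes the concentration required for 50% inhibition of growth.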 Activity calls are given as the source filed them. No stated cut-off is given here; in the data, active = GI50 up to about 1.1 µM and inactive = higher.
Assays:
Experiment in all cases: NCI anticancer screen, dose series, 48 h
HOP-62 = tested on: HOP-62
Malme-3M = tested on: Malme-3M
U-251 = tested on: U-251
UO-31 = tested on: UO-31
HL-60 = tested on: HL-60
SK-OV-3 = tested on: SK-OV-3
LOX IMVI = tested on: LOX IMVI
OVCAR-4 = tested on: OVCAR-4
HT-29 = tested on: HT-29
EKVX = tested on: EKVX
CCRF-CEM = tested on: CCRF-CEM
TK-10 = tested on: TK-10
HOP-92 = tested on: HOP-92
SK-MEL-2 = tested on: SK-MEL-2
A498 = tested on: A498
OVCAR-8 = tested on: OVCAR-8

Measured: GI50

O=C1NC(c2ccccc2)(c2ccccc2)C(=O)N1CCCCCCN1C(=O)NC(c2ccccc2)(c2ccccc2)C1=O
inactive: HOP-62 24.8 µM | Malme-3M 22.5 µM | U-251 27.7 µM | UO-31 > 100 µM | HL-60 > 100 µM | SK-OV-3 26.9 µM | LOX IMVI 62.5 µM | OVCAR-4 4.52 µM | HT-29 45.8 µM | EKVX 39.4 µM | CCRF-CEM > 100 µM | TK-10 25 µM | HOP-92 4.83 µM | SK-MEL-2 15.7 µM | A498 25.5 µM | OVCAR-8 22.3 µM

Cc1cc(O)nc(NNC(C#N)c2ccccc2O)n1 (configuration not stated)
inactive: HOP-62 31.3 µM | Malme-3M 35.7 µM | U-251 15.2 µM | UO-31 18.5 µM | HL-60 3.72 µM | SK-OV-3 39.4 µM | LOX IMVI 17.6 µM | OVCAR-4 15.5 µM | HT-29 30.2 µM | CCRF-CEM 13.6 µM | TK-10 61 µM | HOP-92 75.5 µM | SK-MEL-2 66.8 µM | OVCAR-8 35.7 µM

COc1ccc(OC)c(CCc2ccccc2CC(=O)O)c1
inactive: Malme-3M > 100 µM | U-251 > 100 µM | UO-31 > 100 µM | HL-60 > 100 µM | SK-OV-3 > 100 µM | LOX IMVI > 100 µM | OVCAR-4 > 100 µM | HT-29 > 100 µM | EKVX > 100 µM | CCRF-CEM > 100 µM | TK-10 > 100 µM | HOP-92 > 100 µM | SK-MEL-2 > 100 µM | A498 > 100 µM | OVCAR-8 > 100 µM

O=C(N/C(=C\c1cccc([N+](=O)[O-])c1)c1nc2cc([N+](=O)[O-])ccc2[nH]1)c1ccccc1
inactive: Malme-3M 48.2 µM | U-251 40.7 µM | UO-31 10.9 µM | SK-OV-3 71.3 µM | OVCAR-4 19.5 µM | HT-29 44.4 µM | EKVX 51.9 µM | CCRF-CEM 19.8 µM | TK-10 93.3 µM | HOP-92 21.4 µM | SK-MEL-2 24.3 µM | OVCAR-8 31 µM

CC(C)C(Nc1c2ccccc2nc2ccccc12)C(=O)O (configuration not stated)
inactive: Malme-3M > 100 µM | U-251 > 100 µM | UO-31 29.1 µM | HL-60 52.6 µM | SK-OV-3 > 100 µM | LOX IMVI 55.1 µM | OVCAR-4 20.7 µM | HT-29 59.7 µM | EKVX 67.8 µM | CCRF-CEM > 100 µM | TK-10 > 100 µM | HOP-92 29.2 µM | SK-MEL-2 > 100 µM | OVCAR-8 > 100 µM

CNS(=O)(=O)NNS(=O)(=O)c1ccc2ccccc2c1
inactive: HOP-62 > 100 µM | Malme-3M > 100 µM | U-251 > 100 µM | UO-31 > 100 µM | HL-60 > 100 µM | SK-OV-3 > 100 µM | LOX IMVI > 100 µM | OVCAR-4 > 100 µM | HT-29 > 100 µM | EKVX > 100 µM | CCRF-CEM > 100 µM | TK-10 > 100 µM | SK-MEL-2 > 100 µM | A498 > 100 µM | OVCAR-8 > 100 µM

COc1ccc(-c2cc(=O)c3c(O)cc(O)cc3o2)c(OC)c1OC
inactive: HOP-62 > 100 µM | Malme-3M > 100 µM | HL-60 10.1 µM | SK-OV-3 > 100 µM | LOX IMVI 70.1 µM | OVCAR-4 62.8 µM | HT-29 80 µM | EKVX > 100 µM | CCRF-CEM 50 µM | TK-10 > 100 µM | HOP-92 72.6 µM | SK-MEL-2 > 100 µM

COc1ccc2nc3ccccc3c(NCCN(CCCl)CCCl)c2c1
inactive: Malme-3M 1.51 µM | UO-31 1.57 µM | SK-OV-3 1.48 µM | EKVX 2.35 µM | TK-10 1.76 µM | SK-MEL-2 1.81 µM | A498 2.49 µM
active: HOP-62 0.555 µM | U-251 0.326 µM | HL-60 0.206 µM | OVCAR-4 1.08 µM | HT-29 0.543 µM | CCRF-CEM 0.144 µM | HOP-92 0.476 µM | OVCAR-8 0.649 µM

O=c1cc(-c2ccccc2)oc2cc(O)cc(O)c12 [CHRYSIN]
inactive: HOP-62 31.4 µM | Malme-3M 24.3 µM | U-251 21.7 µM | UO-31 20.4 µM | HL-60 16.8 µM | SK-OV-3 27.9 µM | LOX IMVI 14.7 µM | OVCAR-4 29.8 µM | HT-29 23.4 µM | EKVX 23.1 µM | CCRF-CEM 19.4 µM | TK-10 34.5 µM | HOP-92 16.4 µM | SK-MEL-2 17.9 µM

CC[C@H](C)C(=O)O[C@H]1C[C@@H](C)C=C2C=C[C@H](C)[C@H](CC[C@@H]3C[C@@H](O)CC(=O)O3)[C@H]21 [LOVASTATIN]
inactive: HOP-62 13.1 µM | Malme-3M > 30 µM | UO-31 6.27 µM | HL-60 8.83 µM | SK-OV-3 11.8 µM | LOX IMVI 1.58 µM | OVCAR-4 > 30 µM | HT-29 11.6 µM | EKVX > 30 µM | CCRF-CEM 18.4 µM | TK-10 16.2 µM | SK-MEL-2 13.2 µM | A498 1.21 µM | OVCAR-8 7.83 µM
active: HOP-92 0.0308 µM

From ChEMBL document CHEMBL1201862, “PubChem BioAssay data set” (2004)
